Tests used:
Rattus norvegicus [1] = species on record: Rattus norvegicus; test: Compound was evaluated for the uptake inhibition of [3H]-5-HT in rats; format: functional
Rattus norvegicus [2] = test: Momoamine and metabolic levels observed 1 week following acute dosing against at a dose of 20 mg/kg Frontal cortex DOPAC; format: ADME, organism-based; set-up: dose 20 mg/kg; details: in vivo, 168 h
Rattus norvegicus [3] = test: Momoamine and metabolic levels observed 1 week following acute dosing against at a dose of 20 mg/kg Frontal cortex HVA; format: ADME, organism-based; set-up: dose 20 mg/kg; details: in vivo, 168 h
Rattus norvegicus [4] = test: Momoamine and metabolic levels observed 1 week following acute dosing against at a dose of 20 mg/kg Frontal cortex NE; format: ADME, organism-based; set-up: dose 20 mg/kg; details: in vivo, 168 h
Rattus norvegicus [5] = test: Momoamine and metabolic levels observed 1 week following acute dosing against at a dose of 20 mg/kg Frontal cortex DA; format: ADME, organism-based; set-up: dose 20 mg/kg; details: in vivo, 168 h
Rattus norvegicus [6] = test: Momoamine and metabolic levels observed 1 week following acute dosing against at a dose of 10 mg/kg Hippocampus 5-HT; format: ADME, organism-based; set-up: dose 10 mg/kg; details: in vivo, 168 h
Rattus norvegicus [7] = test: Momoamine and metabolic levels observed 1 week following acute dosing against at a dose of 10 mg/kg Hippocampus NE; format: ADME, organism-based; set-up: dose 10 mg/kg; details: in vivo, 168 h
Rattus norvegicus [8] = test: Momoamine and metabolic levels observed 1 week following acute dosing at a dose of 10 mg/kg Frontal cortex 5-HIAA; format: ADME, organism-based; set-up: dose 10 mg/kg; details: in vivo, 168 h
Rattus norvegicus [9] = test: Momoamine and metabolic levels observed 1 week following acute dosing at a dose of 10 mg/kg Frontal cortex 5-HT; format: ADME, organism-based; set-up: dose 10 mg/kg; details: in vivo, 168 h
Rattus norvegicus [10] = test: Momoamine and metabolic levels observed 1 week following acute dosing at a dose of 10 mg/kg Frontal cortex DA; format: ADME, organism-based; set-up: dose 10 mg/kg; details: in vivo, 168 h
Rattus norvegicus [11] = test: Momoamine and metabolic levels observed 1 week following acute dosing at a dose of 10 mg/kg Frontal cortex DOPAC; format: ADME, organism-based; set-up: dose 10 mg/kg; details: in vivo, 168 h
Rattus norvegicus [12] = test: Momoamine and metabolic levels observed 1 week following acute dosing against at a dose of 20 mg/kg Hippocampus NE; format: ADME, organism-based; set-up: dose 20 mg/kg; details: in vivo, 168 h
Rattus norvegicus [13] = test: Momoamine and metabolic levels observed 2 weeks following sub-acute dosing against Frontal cortex 5-HIAA; format: ADME, organism-based; details: in vivo, 336 h
Rattus norvegicus [14] = test: Momoamine and metabolic levels observed 2 weeks following sub-acute dosing against Frontal cortex 5-HT; format: ADME, organism-based; details: in vivo, 336 h
Rattus norvegicus [15] = test: Momoamine and metabolic levels observed 2 weeks following sub-acute dosing against Frontal cortex DA; format: ADME, organism-based; details: in vivo, 336 h
Rattus norvegicus [16] = test: Momoamine and metabolic levels observed 2 weeks following sub-acute dosing against Frontal cortex DOPAC; format: ADME, organism-based; details: in vivo, 336 h
Rattus norvegicus [17] = test: Momoamine and metabolic levels observed 2 weeks following sub-acute dosing against Frontal cortex NE; format: ADME, organism-based; details: in vivo, 336 h
Rattus norvegicus [18] = test: Momoamine and metabolic levels observed 2 weeks following sub-acute dosing against Hippocampus 5-HIAA; format: ADME, organism-based; details: in vivo, 336 h
Rattus norvegicus [19] = test: Momoamine and metabolic levels observed 2 weeks following sub-acute dosing against Hippocampus 5-HT; format: ADME, organism-based; details: in vivo, 336 h
Rattus norvegicus [20] = test: Momoamine and metabolic levels observed 1 week following acute dosing against at a dose of 20 mg/kg Frontal cortex 5-HIAA; format: ADME, organism-based; set-up: dose 20 mg/kg; details: in vivo, 168 h
Rattus norvegicus [21] = test: Momoamine and metabolic levels observed 1 week following acute dosing against at a dose of 20 mg/kg Frontal cortex 5-HT; format: ADME, organism-based; set-up: dose 20 mg/kg; details: in vivo, 168 h
Rattus norvegicus [22] = test: Momoamine and metabolic levels observed 1 week following acute dosing at a dose of 10 mg/kg Frontal cortex HVA; format: ADME, organism-based; set-up: dose 10 mg/kg; details: in vivo, 168 h
Rattus norvegicus [23] = test: Momoamine and metabolic levels observed 1 week following acute dosing at a dose of 10 mg/kg Frontal cortex NE; format: ADME, organism-based; set-up: dose 10 mg/kg; details: in vivo, 168 h
Rattus norvegicus [24] = test: Momoamine and metabolic levels observed 1 week following acute dosing at a dose of 10 mg/kg Hippocampus 5-HIAA; format: ADME, organism-based; set-up: dose 10 mg/kg; details: in vivo, 168 h
Rattus norvegicus [25] = test: Momoamine and metabolic levels observed at 3 hr postdrug against at a dose of 20 mg/kg Hippocampus NE; format: ADME, organism-based; set-up: dose 20 mg/kg; details: in vivo
Rattus norvegicus [26] = test: Momoamine and metabolic levels observed at 3 hr postdrug against at a dose of 20 mg/kg Frontal cortex 5-HT; format: ADME, organism-based; set-up: dose 20 mg/kg; details: in vivo
Rattus norvegicus [27] = test: Momoamine and metabolic levels observed at 3 hr postdrug against at a dose of 20 mg/kg Frontal cortex DA; format: ADME, organism-based; set-up: dose 20 mg/kg; details: in vivo
Rattus norvegicus [28] = test: Momoamine and metabolic levels observed at 3 h postdrug against at a dose of 20 mg/kg Frontal cortex DOPAC; format: ADME, organism-based; set-up: dose 20 mg/kg; details: in vivo
Rattus norvegicus [29] = test: Momoamine and metabolic levels observed at 3 hr postdrug against at a dose of 20 mg/kg Frontal cortex HVA; format: ADME, organism-based; set-up: dose 20 mg/kg; details: in vivo
Rattus norvegicus [30] = test: Momoamine and metabolic levels observed at 3 hr postdrug against at a dose of 20 mg/kg Frontal cortex NE; format: ADME, organism-based; set-up: dose 20 mg/kg; details: in vivo
Rattus norvegicus [31] = test: Momoamine and metabolic levels observed at 3 hr postdrug against at a dose of 20 mg/kg Hippocampus 5-HIAA; format: ADME, organism-based; set-up: dose 20 mg/kg; details: in vivo
Rattus norvegicus [32] = test: Momoamine and metabolic levels observed 2 weeks following sub-acute dosing against Hippocampus NE; format: ADME, organism-based; details: in vivo, 336 h
Rattus norvegicus [33] = test: Momoamine and metabolic levels observed 1 week following acute dosing against at a dose of 20 mg/kg Hippocampus 5-HIAA; format: ADME, organism-based; set-up: dose 20 mg/kg; details: in vivo, 168 h
Rattus norvegicus [34] = test: Momoamine and metabolic levels observed at 3 hr postdrug against at a dose of 20 mg/kg Frontal cortex 5-HIAA; format: ADME, organism-based; set-up: dose 20 mg/kg; details: in vivo
Rattus norvegicus [35] = test: Momoamine and metabolic levels observed 1 week following acute dosing against at a dose of 20 mg/kg Hippocampus 5-HT; format: ADME, organism-based; set-up: dose 20 mg/kg; details: in vivo, 168 h
Rattus norvegicus [36] = test: Effective dose was evaluated for drug discrimination in I-trained rats, when given at a dose of 0.25 mg/kg; format: functional; details: Rattus norvegicus; read-out: ED50
Rattus norvegicus [37] = test: Effective dose was evaluated for drug discrimination in I-trained rats, when given at a dose of 1.16 micro mol/kg; format: functional
Rattus norvegicus [38] = test: Effective dose was evaluated for drug discrimination in S-trained rats, when given at a dose of 0.25 umol/kg; format: functional
Rattus norvegicus [39] = test: Effective dose was evaluated for drug discrimination in S-trained rats, when given at a dose of 0.25 mg/kg; format: functional
Rattus norvegicus [40] = test: Percentage of non disrupted rats that selected the drug lever, when given at a dose of 0.25 mg/kg; format: functional
Rattus norvegicus [41] = test: Percentage of non disrupted rats that selected the drug lever, when given at a dose of 0.25 mg/kg in LSD-Trained rats; format: functional
Rattus norvegicus [42] = test: Percentage of non disrupted rats that selected the drug lever, when given at a dose of 0.25 mg/kg in S-Amphetamine-Trained rats; format: functional
Rattus norvegicus [43] = test: Percentage of non disrupted rats that selected the drug lever, when given at a dose of 0.50 mg/kg in LSD-Trained rats; format: functional; details: dose 0.5 mg/kg
Rattus norvegicus [44] = test: Percentage of non disrupted rats that selected the drug lever, when given at a dose of 0.5 mg/kg; format: functional
Rattus norvegicus [45] = test: Percentage of non disrupted rats that selected the drug lever, when given at a dose of 1.00 mg/kg in S-Amphetamine-Trained rats; format: functional
Rattus norvegicus [46] = test: Percentage of non disrupted rats that selected the drug lever, when given at a dose of 2.00 mg/kg; format: functional
Rattus norvegicus [47] = test: Percentage of non disrupted rats that selected the drug lever, when given at a dose of 2.00 mg/kg in LSD-Trained rats; format: functional
Rattus norvegicus [48] = test: Percentage of non disrupted rats that selected the drug lever, when given at a dose of 0.5 mg/kg in S-Amphetamine-Trained rats; format: functional
Rattus norvegicus [49] = test: Percentage of non disrupted rats that selected the drug lever, when given at a dose of 1.00 mg/kg; format: functional
[50] = target: Sodium-dependent serotonin transporter (Rattus norvegicus) (UniProt P31652); test: Number of uptake sites for [3H]paroxetine receptor binding after sub-acute dosing against Frontal cortex; format: tissue-based
Chain of Sodium-dependent serotonin transporter (Rattus norvegicus) (P31652 whole entry): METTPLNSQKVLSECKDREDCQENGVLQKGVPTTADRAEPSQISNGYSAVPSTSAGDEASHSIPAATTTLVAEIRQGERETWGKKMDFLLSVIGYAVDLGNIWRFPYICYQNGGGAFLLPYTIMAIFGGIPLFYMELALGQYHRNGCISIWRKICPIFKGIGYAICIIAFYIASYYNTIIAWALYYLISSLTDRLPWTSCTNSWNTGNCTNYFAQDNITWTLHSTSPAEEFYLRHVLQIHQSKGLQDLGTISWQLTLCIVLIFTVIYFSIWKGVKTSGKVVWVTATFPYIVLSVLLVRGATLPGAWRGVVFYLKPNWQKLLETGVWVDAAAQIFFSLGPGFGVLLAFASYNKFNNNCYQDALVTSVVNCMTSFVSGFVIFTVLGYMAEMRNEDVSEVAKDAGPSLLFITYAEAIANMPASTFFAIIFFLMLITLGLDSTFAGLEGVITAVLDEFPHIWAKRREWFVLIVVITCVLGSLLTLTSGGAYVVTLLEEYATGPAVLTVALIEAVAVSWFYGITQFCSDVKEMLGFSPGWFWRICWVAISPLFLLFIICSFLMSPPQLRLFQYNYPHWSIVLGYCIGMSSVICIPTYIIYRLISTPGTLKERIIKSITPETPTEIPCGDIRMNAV

[51] = target: Sodium-dependent serotonin transporter (Rattus norvegicus) (UniProt P31652); test: Number of uptake sites for [3H]paroxetine receptor binding after sub-acute dosing against Hippocampus
Rattus norvegicus [52] = test: Momoamine and metabolic levels observed 2 weeks following sub-acute dosing against Frontal cortex HVA; format: ADME, organism-based; details: in vivo, 336 h

For `COc1cc(CC(C)N)c(OC)cc1C` (stereo not drawn) [DOM], the IC50 (Rattus norvegicus [1]) was 10.7 µM.

Compound `COc1cc(CC(C)N)ccc1C` (stereo not drawn) has a Metabolite level (Rattus norvegicus [2]) of 45, a Metabolite level (Rattus norvegicus [3]) of 85 and a Metabolite level (Rattus norvegicus [4]) of 487. It also gave a Metabolite level (Rattus norvegicus [5]) of 86, a Metabolite level (Rattus norvegicus [6]) of 255 and a Metabolite level (Rattus norvegicus [7]) of 620. It also gave a Metabolite level (Rattus norvegicus [8]) of 233, a Metabolite level (Rattus norvegicus [9]) of 281 and a Metabolite level (Rattus norvegicus [10]) of 88. For the same compound, the Metabolite level (Rattus norvegicus [11]) was 39, the Metabolite level (Rattus norvegicus [12]) was 578 and the Metabolite level (Rattus norvegicus [13]) was 253. It also gave a Metabolite level (Rattus norvegicus [14]) of 411, a Metabolite level (Rattus norvegicus [15]) of 83 and a Metabolite level (Rattus norvegicus [16]) of 74. The Metabolite level (Rattus norvegicus [17]) was 573, the Metabolite level (Rattus norvegicus [18]) was 503 and the Metabolite level (Rattus norvegicus [19]) was 392. For the same compound, the Metabolite level (Rattus norvegicus [20]) was 229, the Metabolite level (Rattus norvegicus [21]) was 316 and the Metabolite level (Rattus norvegicus [22]) was 70. It also gave a Metabolite level (Rattus norvegicus [23]) of 394, a Metabolite level (Rattus norvegicus [24]) of 460 and a Metabolite level (Rattus norvegicus [25]) of 641. It also gave a Metabolite level (Rattus norvegicus [26]) of 212, a Metabolite level (Rattus norvegicus [27]) of 120 and a Metabolite level (Rattus norvegicus [28]) of 46. For the same compound, the Metabolite level (Rattus norvegicus [29]) was 138, the Metabolite level (Rattus norvegicus [30]) was 585 and the Metabolite level (Rattus norvegicus [31]) was 260. It also gave a Metabolite level (Rattus norvegicus [32]) of 724, a Metabolite level (Rattus norvegicus [33]) of 430 and a Metabolite level (Rattus norvegicus [34]) of 139. It also gave a Metabolite level (Rattus norvegicus [35]) of 431, an ED50 (Rattus norvegicus [36]) of 0.59 mg/kg and an ED50 (Rattus norvegicus [37]) of 2.74 µmol/kg. It also gave an ED50 (Rattus norvegicus [38]) of 2.16 µmol/kg, an ED50 (Rattus norvegicus [39]) of 0.47 mg/kg and an IC50 (Rattus norvegicus [1]) of 0.136 µM. It also gave an SDL (Rattus norvegicus [40]) of 11%, an SDL (Rattus norvegicus [41]) of 0% and an SDL (Rattus norvegicus [42]) of 0%. It also gave an SDL (Rattus norvegicus [43]) of 38%, an SDL (Rattus norvegicus [44]) of 50% and an SDL (Rattus norvegicus [45]) of 0%. The SDL (Rattus norvegicus [46]) was 100%, the SDL (Rattus norvegicus [47]) was 75% and the SDL (Rattus norvegicus [48]) was 0%. It also gave an SDL (Rattus norvegicus [49]) of 63%, a No. of uptake sites [50] of 12.3 and a No. of uptake sites [51] of 14.9. It also gave a Metabolite level (Rattus norvegicus [52]) of 62.

Reference: ChEMBL document CHEMBL1125697, “Synthesis and pharmacological examination of 1-(3-methoxy-4-methylphenyl)-2-aminopropane and 5-methoxy-6-methyl-2-aminoindan: similarities to 3,4-(methylenedioxy)methamphetamine (MDMA)” (J Med Chem, 1991)
